Assay results published in patent US20110207779A1, “PROCESS FOR THE PREPARATION OF ESOMEPRAZOLE MAGNESIUM” (GLENMARK GENERICS LTD, priority 2010, published 2011).

Assay: R-isomer content of formulated esomeprazole magnesium dihydrate after incubation in a closed container (chiral HPLC)
Format: physicochemical
Details: formulated in above mentioned dosage forms (capsules, mini-tablets); incubated in a closed container; temperature and time not given
Description: The content of R-isomer in esomeprazole magnesium dihydrate was measured by chiral high performance liquid chromatography equipped with quaternary gradient pumps, variable wavelength UV detector attached with data recorder and integrator software under the following conditions:
Buffer preparation: mix 70 mL of 156.0 g/l solution of sodium dihydrogen phosphate R with 20 mL of a 179.1 g/l solution of disodium hydrogen phosphate R. Dilute with water to 1000 mL and then dilute 250 mL of this solution with water to 1000 ml. Mobile phase: Acetonitrile: buffer solution pH 6.0 (65:435, v/v).

With `COc1ccc2[n-]c([S@@+]([O-])Cc3ncc(C)c(OC)c3C)nc2c1.COc1ccc2[n-]c([S@@+]([O-])Cc3ncc(C)c(OC)c3C)nc2c1.O.O.[Mg+2]` [Esomeprazole magnesium dihydrate, esomeprazole magnesium dihydrate] the “R-isomer content after formulation and incubation (chiral stability)” value was “remains within the range of R-isomer content”.
